pIC50: −log10 of the molar value.
What was measured:
Type in all cases: biochemical
AMPK = AMPK (Homo sapiens, UniProt P54646); assay: single-point panel of […] kinases at […]; conditions: read-out: % inhibition at 1 μM
ULK2 = molecular target: T1, ULK2 (Homo sapiens, UniProt Q8IYT8); assay: single-point kinase panel at […]
T1 sequence (Q8IYT8 1-1036): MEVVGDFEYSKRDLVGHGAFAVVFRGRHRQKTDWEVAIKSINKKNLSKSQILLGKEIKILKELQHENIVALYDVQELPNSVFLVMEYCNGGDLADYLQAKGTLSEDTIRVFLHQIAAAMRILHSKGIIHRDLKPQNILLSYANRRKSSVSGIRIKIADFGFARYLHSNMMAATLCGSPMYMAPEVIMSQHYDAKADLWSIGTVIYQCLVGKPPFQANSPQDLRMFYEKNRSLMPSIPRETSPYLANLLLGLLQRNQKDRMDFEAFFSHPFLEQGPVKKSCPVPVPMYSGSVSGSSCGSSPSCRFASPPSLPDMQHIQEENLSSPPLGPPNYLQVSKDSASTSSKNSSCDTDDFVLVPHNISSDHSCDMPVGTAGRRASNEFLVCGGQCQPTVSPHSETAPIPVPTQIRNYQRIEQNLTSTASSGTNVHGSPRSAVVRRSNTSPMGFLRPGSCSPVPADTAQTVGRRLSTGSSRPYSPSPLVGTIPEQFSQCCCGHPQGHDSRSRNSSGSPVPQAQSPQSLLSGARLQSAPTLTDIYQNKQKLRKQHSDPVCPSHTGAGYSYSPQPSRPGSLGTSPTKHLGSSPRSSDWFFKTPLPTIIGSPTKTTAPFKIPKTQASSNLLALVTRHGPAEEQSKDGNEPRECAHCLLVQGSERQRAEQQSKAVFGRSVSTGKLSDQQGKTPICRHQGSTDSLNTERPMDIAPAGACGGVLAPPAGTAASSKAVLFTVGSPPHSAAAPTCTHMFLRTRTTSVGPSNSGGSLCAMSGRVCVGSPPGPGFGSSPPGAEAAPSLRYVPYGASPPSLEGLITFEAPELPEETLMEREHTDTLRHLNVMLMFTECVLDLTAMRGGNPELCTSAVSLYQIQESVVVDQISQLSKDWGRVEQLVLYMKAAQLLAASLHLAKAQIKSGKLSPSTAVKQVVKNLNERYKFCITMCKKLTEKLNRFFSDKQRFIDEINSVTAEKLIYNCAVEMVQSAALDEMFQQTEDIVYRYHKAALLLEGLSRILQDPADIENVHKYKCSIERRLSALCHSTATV

TANK-binding kinase 1 = molecular target: T2, TANK-binding kinase 1 (Homo sapiens, UniProt Q9UHD2); assay: single-point panel of […] kinases at […]; conditions: read-out: % inhibition at 1 μM
T2 sequence (Q9UHD2 1-729): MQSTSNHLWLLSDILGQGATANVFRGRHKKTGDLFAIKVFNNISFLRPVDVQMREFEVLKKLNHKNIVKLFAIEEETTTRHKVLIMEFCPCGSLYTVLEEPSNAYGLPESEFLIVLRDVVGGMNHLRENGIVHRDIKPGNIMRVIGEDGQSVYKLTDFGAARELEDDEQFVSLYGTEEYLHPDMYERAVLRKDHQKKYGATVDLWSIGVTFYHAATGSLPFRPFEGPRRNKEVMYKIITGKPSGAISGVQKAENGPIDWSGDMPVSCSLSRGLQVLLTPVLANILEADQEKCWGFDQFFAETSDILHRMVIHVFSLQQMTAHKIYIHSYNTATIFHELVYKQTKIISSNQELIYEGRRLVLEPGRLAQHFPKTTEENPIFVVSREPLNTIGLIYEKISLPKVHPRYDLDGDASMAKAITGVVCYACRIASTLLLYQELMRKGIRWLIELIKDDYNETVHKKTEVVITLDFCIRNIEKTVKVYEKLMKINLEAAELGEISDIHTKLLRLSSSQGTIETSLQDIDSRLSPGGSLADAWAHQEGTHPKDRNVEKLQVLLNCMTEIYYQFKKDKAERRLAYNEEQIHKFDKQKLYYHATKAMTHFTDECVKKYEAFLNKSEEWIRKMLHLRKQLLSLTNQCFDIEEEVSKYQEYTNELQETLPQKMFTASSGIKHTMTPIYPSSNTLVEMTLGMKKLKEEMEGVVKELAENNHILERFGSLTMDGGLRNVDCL

[1] = molecular target: T3, ULK1 (unc-51–like autophagy activating kinase 1) (Homo sapiens, UniProt O75385); assay: single-point kinase panel at […]; conditions: read-out: % inhibition at 1 μM
T3 sequence (O75385 1-1050): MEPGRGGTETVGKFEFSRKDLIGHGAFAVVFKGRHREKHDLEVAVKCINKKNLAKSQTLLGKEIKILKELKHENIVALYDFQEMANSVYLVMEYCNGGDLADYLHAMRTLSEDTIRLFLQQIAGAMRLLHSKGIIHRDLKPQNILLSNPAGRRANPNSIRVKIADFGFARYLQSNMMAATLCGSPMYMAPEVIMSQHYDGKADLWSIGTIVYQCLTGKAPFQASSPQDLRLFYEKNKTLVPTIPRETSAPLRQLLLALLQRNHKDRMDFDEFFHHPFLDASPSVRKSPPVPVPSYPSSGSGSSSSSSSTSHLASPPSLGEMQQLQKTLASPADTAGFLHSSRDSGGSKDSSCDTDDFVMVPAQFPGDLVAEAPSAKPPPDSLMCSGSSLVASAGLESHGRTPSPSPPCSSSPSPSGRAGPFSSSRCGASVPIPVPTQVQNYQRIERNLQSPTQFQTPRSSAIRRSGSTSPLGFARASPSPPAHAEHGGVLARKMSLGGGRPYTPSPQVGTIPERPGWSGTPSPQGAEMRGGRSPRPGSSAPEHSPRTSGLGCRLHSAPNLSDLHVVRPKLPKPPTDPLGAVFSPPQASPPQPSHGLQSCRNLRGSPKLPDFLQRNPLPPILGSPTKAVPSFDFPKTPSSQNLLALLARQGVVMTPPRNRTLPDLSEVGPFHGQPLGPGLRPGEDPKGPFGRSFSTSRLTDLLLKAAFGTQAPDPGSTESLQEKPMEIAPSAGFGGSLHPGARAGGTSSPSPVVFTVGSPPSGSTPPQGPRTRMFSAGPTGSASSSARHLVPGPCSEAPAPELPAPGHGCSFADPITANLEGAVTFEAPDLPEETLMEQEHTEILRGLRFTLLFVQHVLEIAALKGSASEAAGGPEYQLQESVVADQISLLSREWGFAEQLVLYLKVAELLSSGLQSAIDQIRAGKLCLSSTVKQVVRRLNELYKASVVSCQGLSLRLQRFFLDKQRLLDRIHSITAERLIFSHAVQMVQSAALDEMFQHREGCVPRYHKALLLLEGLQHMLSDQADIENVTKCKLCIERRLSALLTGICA

[2] = molecular target: T3, ULK1 (unc-51–like autophagy activating kinase 1); assay: radiometric […] kinase assay with myelin basic protein, […] ATP

AMPK, sequence (P54646 whole entry): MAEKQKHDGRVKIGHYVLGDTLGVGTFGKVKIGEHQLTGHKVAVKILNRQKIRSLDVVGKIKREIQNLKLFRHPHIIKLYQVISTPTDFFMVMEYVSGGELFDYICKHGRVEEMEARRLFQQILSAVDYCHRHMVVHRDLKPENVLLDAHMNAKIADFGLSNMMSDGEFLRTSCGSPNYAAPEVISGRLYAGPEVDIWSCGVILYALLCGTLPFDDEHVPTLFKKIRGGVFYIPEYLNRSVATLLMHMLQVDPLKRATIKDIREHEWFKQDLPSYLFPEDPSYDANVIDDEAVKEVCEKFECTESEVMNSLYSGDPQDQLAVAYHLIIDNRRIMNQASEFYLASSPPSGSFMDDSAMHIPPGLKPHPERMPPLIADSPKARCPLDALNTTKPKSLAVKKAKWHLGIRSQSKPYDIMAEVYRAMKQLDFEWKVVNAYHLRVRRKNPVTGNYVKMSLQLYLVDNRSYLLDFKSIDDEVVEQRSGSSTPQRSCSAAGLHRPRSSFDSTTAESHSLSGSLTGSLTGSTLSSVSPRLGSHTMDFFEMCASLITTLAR
AMPK, sequence (Q9Y478 2-270 partner): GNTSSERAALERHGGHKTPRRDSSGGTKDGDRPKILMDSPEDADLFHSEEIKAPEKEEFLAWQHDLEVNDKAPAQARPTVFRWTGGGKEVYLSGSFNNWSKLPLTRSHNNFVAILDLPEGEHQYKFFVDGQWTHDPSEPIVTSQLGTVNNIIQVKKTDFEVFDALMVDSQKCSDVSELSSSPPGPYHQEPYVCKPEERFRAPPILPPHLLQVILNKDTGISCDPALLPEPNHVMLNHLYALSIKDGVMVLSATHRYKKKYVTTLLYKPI
AMPK, sequence (P54619 whole entry partner): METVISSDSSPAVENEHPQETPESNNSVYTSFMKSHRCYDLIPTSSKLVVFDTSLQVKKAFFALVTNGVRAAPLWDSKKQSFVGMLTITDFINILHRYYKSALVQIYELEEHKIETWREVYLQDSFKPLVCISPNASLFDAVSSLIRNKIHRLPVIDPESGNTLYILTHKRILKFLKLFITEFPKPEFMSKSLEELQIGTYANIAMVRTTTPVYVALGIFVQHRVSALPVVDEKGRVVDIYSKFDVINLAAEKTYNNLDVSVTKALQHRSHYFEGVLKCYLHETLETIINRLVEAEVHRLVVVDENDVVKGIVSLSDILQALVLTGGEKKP

inhibition at 1 µM (AMPK)	inhibition at 1 µM (ULK2; read-out: % inhibition at 1 μM)	inhibition at 1 µM (TANK-binding kinase 1)	inhibition at 1 µM [1]	% inhibition at 1 μM (ULK2)	pIC50 [2]	Compound
> 90%	> 90%	> 90%	> 90%	–	–	CN1CCc2cc(Nc3ncc(C4CC4)c(NCCCNC(=O)C4CCC4)n3)ccc2C1 [MRT68921]
–	–	–	–	> 90	8.80	MRT403

From publication PMC7612079 (Science translational medicine, 2021)
